Measured values from patent EP0845210A1, “New herbicidal compositions” (RHONE-POULENC AGRICULTURE LTD., priority 1994, dated 1996).

Tests used:
Assay in all cases: Procedure D: pre-emergence field trial (Volga, Brookings), visual assessment about 26 days after treatment
Assay type in all cases: in vivo
Panicum miliaceum = conditions: A 375 g/ha alone
Description: (§1) The following experiments were carried out pre-emergence of the weed species. Compound A, formulated as a wettable dispersible granule as described in Example 1 herebelow (750g per kilogram) and each acetochlor (used as the commercially available formulation "Harness" (trade mark), an emulsifiable concentrate containing 960g of acetochlor per kilogram, and which also contains the safening agent flurazole, metolachlor (used as the commercially available formulation "Duelor" (trade mark), an emulsifiable concentrate emulsifiable concentrate containing 960g of metolachlor per kilogram), alachlor (used as the commercially available formulation "Lasso" (trade mark), an emulsifiable concentrate containing 480g of alachlor per kilogram) and dimethenamid (used as the commercially available formulation "Frontiere" (trade mark), a flowable containing 900g/l active ingerident) were dissolved in water and sprayed at a volume rate of 187 litres/hectare on various test plots (10 square meters in area) either alone or in mixtures. The soil was a clay-loam, with a pH of 7, the experiments being conducted in June in Volga, Brookings, U.S.A. The various weed and crop species were drill sown and the various compositions were applied on the same day after drilling. Three replicates were performed and the efficacy of the various mixtures were determined by visual assessment of the percentage phytotoxicity in comparison with an untreated control. Assessment was made about 26 days after treatment. In the Tables which follow the dose is expressed in grammes per hectare and the figures in brackets represent the expected results according to the Colby formula.

Abutilon theophrasti = conditions: A 37.5 g/ha alone
Description: as §1

Helianthus annuus = conditions: A 37.5 g/ha alone
Description: as §1

Q: `CS(=O)(=O)c1cc(C(F)(F)F)ccc1C(=O)c1cnoc1C1CC1` [Compound A, 5-cyclopropyl-4-(2-methylsulphonyl-4-trifluoromethyl)benzoylisoxazole] was tested. Which percentage phytotoxicity (Panicum miliaceum) did it give?
A: 65%

Q: What about the percentage phytotoxicity (Abutilon theophrasti) of the same molecule?
A: 93%

Q: And the percentage phytotoxicity (Helianthus annuus)?
A: 18%
